Measurements taken from ChEMBL document CHEMBL1146687, “Novel semi-synthetic nocathiacin antibiotics: synthesis and antibacterial activity of bis- and mono-O-alkylated derivatives” (Bioorg Med Chem Lett, 2004).
Converted amounts (≈) assume the structure as drawn.

Legend:
Format in all cases: functional
Streptococcus pneumoniae [1] = assay: In vitro antibacterial activity against Streptococcus pneumoniae; […]
Staphylococcus aureus [2] = assay: In vitro antibacterial activity against […]; 0.003-0.007
Staphylococcus aureus [3] = assay: In vivo efficacy;(sc) tested for protection against staphylococcus infections in mice; details: read-out: PD50
Enterococcus faecalis = assay: In vitro antibacterial activity against Enterococcus faecalis
Streptococcus pneumoniae [4] = assay: In vitro antibacterial activity against Streptococcus pneumoniae
Staphylococcus aureus [5] = assay: In vitro antibacterial activity against […]; 0.0070-0.03
Mus musculus [6] = assay: In vivo efficacy (sc) tested for protection against staphylococcus infections in mice; 0.3-2.8; details: read-out: PD50
Mus musculus [7] = assay: In vivo efficacy (sc) tested for protection against staphylococcus infections in mice; 1.1-3.3; details: read-out: PD50
Staphylococcus aureus [8] = assay: In vitro antibacterial activity against Staphylococcus aureus

Row | Compound | MIC (Streptococcus pneumoniae [1]) | MIC (Staphylococcus aureus [2]) | ED50 (Staphylococcus aureus [3]) | MIC (Enterococcus faecalis) | MIC (Streptococcus pneumoniae [4]) | MIC (Staphylococcus aureus [5]) | ED50 (Mus musculus [6]) | ED50 (Mus musculus [7]) | MIC (Staphylococcus aureus [8])
1 | C=C(NC(=O)c1csc(-c2nc3c(cc2OC)-c2nc(cs2)C(=O)N[C@@H]([C@@H](C)O)C(=O)N/C(=C(\C)OC)c2nc(cs2)C(=O)N[C@@H]2c4nc(cs4)C(=O)N[C@@H](COC(=O)c4c5c6c(cccc6n4OC)COC(=O)[C@@H](O[C@H]4C[C@](C)(O)[C@H](N(C)C)[C@H](C)O4)[C@H]2OC5)c2nc-3cs2)n1)C(N)=O | < 0.001 µg/mL | < 0.007 µg/mL | 3.7 mg/kg | 0.015 µg/mL (≈ 0.0102 µM) |  |  |  |  | 
2 | C=C(NC(=O)c1csc(-c2nc3c(cc2O)-c2nc(cs2)C(=O)N[C@@H]([C@@H](C)O)C(=O)N/C(=C(\C)OC)c2nc(cs2)C(=O)N[C@@H]2c4nc(cs4)C(=O)N[C@@H](COC(=O)c4c5c6c(cccc6n4O)COC(=O)[C@@H](O[C@H]4C[C@](C)(O)[C@H](N(C)C)[C@H](C)O4)[C@H]2OC5)c2nc-3cs2)n1)C(N)=O [MJ347-81F4 A] |  |  |  | 0.03 µg/mL (≈ 0.0209 µM) | 0.002 µg/mL (≈ 0.00139 µM) | < 0.03 µg/mL | < 2.8 mg/kg |  | 
3 | CN[C@H](CC(C)C)C(=O)N[C@H]1C(=O)N[C@@H](CC(N)=O)C(=O)N[C@H]2C(=O)N[C@H]3C(=O)N[C@H](C(=O)N[C@H](C(=O)O)c4cc(O)cc(O)c4-c4cc3ccc4O)[C@H](O)c3ccc(c(Cl)c3)Oc3cc2cc(c3O[C@@H]2O[C@H](CO)[C@@H](O)[C@H](O)[C@H]2O[C@H]2C[C@](C)(N)[C@H](O)[C@H](C)O2)Oc2ccc(cc2Cl)[C@H]1O [VANCOMYCIN] |  |  |  | < 0.5 µg/mL |  |  |  | < 3.3 mg/kg | 0.2 µg/mL (≈ 0.138 µM)
